Blank lines part the entries; values can stand above or below the compound they belong to.
What was measured:
FP receptor [1] = target: T1, FP receptor (Rattus norvegicus, UniProt P43118); test: Schild analysis: antagonism of fluprostenol-induced [3H]IPs production in A7r5 cells (fixed antagonist, varied agonist); format: cell-based; details: for Kb (potency as antagonist of the FP receptor) / Kb: Schild analysis; for Kb: read-out: Kb (potency as antagonist of the FP receptor)
T1 construct: Two cell lines containing the FP receptor; host or cells: A7r5 rat thoracic aorta smooth muscle cells
Experimental: (§1) Confluent monolayer cultures of cells (in a standard 24-well tissue culture plate) expressing the FP receptor are exposed to [^3H]-myo-inositol (1.5 μCi in a volume of 0.5 ml DMEM culture medium supplemented with 2 mM L-glutamine and 10 μg/ml gentamicin sulfate) in the absence of serum, which causes net incorporation of the radioisotope into the phosphotidylinositol membrane lipids. After 24-32 hrs, the medium with the radioisotope is removed and the cells are rinsed once with DMEM/F-12 medium containing 10 mM LiCl (assay medium). Then 0.5 ml of assay medium is added to each well of cells, followed by addition of varying concentrations of an FP receptor agonist (or other test compound). Cells are exposed to the test agent for 30-120 min in a humidified incubator (95% air/5% CO2), maintained at 37° C. Then the assay medium is removed and 1 ml of 0.1 M formic acid is added to the cell monolayer to inactivate the phospholipase C and to the radiolabelled products into the assay medium. The presence of LiCl during the agonist stimulation period inhibits phosphatases and permits the accumulation of radiolabelled inositol phosphates (IPs) which is measured by ion exchange chromatography.
The agonist-dependent production of IPs, which reflects the degree of receptor activation, is quantitatively measured for each well of cells in the 24-well plate by separating the negatively charged radiolabelled IPs from other minor radiolabelled species and free [^3H]-myo-inositol by anion exchange chromatography. This is accomplished by adding 0.9 ml of the cell lysate obtained as described above to a column packed with 1 ml of AG 1-X8 anion exchange resin in the formate form. The elution and separation of the radiolabelled IPs from the column consists of sequential additions to the column of: 1) 10 ml of water; 2) 8 ml of 50 mM ammonium formate; and 3) 4 ml of 1.2 M ammonium formate solution containing 0.1 M formic acid. The first two washes are discarded, and the third is collected in a scintillation vial, to which is added 15 ml of a water-accepting scintillation fluid. These samples, i.e., the radiolabelled IPs formed by the cells in response to stimulation by an FP prostaglandin receptor agonist or other test agent, is then measured by scintillation spectrometry on a beta-counter.
The dependence of the level of the [^3H]IPs production on agonist concentration is analyzed by standard pharmacological methods to determine the potency (EC50 value) and efficacy (maximum response; Emax) of the FP receptor agonist relative to a standard FP receptor agonist such as fluprostenol. […] The agonist stimulation is then continued for the standard time (30-120 min), after which the procedure for quenching the reaction, separating the [^3H]IPs, and anion exchange chromatography is identical to the procedure described above. A compound is considered to be an antagonist in this protocol if it inhibits the agonist-stimulated [^3H]IPs production relative to the production measured in the control experiment (performed in parallel), in which the solvent is substituted for the antagonist.
Two different antagonist protocols are employed: 1) the antagonist concentration is varied while holding the agonist concentration fixed at a concentration approximately 10 times the agonist EC50 value and 2) the antagonist concentration is fixed in a given experiment, with the agonist concentration varied, and several such experiments, each with a different, fixed antagonist concentration, are performed. […] Overall, the Ki and Kb values are synonymous and represent the antagonist potency of the antagonist at equilibrium.

FP receptor [2] = target: T1, FP receptor; test: Agonist stimulation of [3H]IPs production in A7r5 cells; format: cell-based
Experimental: as §1, with “Then the assay medium is removed and 1 ml of 0.1 M formic acid is added to the cell monolayer to inactivate the phospholipase C and to the radiolabelled products into the assay medium.” left out
(§2) The agonist-dependent production of IPs, which reflects the degree of receptor activation, is quantitatively measured for each well of cells in the 24-well plate by separating the negatively charged radiolabelled IPs from other minor radiolabelled species and free [^3H]-myo-inositol by anion exchange chromatography. […]

FP receptor [3] = test: Schild analysis: antagonism of agonist-stimulated [3H]IPs production, data from 3T3 and A7r5 cells; format: cell-based, mouse and rat; details: n=9 experiments using 3T3 and A7r5 cells; read-out: Kb (antagonist potency by Schild analysis)
Experimental: as §1, with “Then the assay medium is removed and 1 ml of 0.1 M formic acid is added to the cell monolayer to inactivate the phospholipase C and to the radiolabelled products into the assay medium.” left out
as §2

FP receptor [4] = target: T1, FP receptor; test: Concentration-dependent inhibition of fluprostenol-stimulated [3H]IPs production in A7r5 cells (varied antagonist, fixed agonist); format: cell-based; details: fluprostenol fixed at approximately 10 times its EC50, n=3, read-out: Ki (antagonist potency by method of FIG. 2)
Experimental: as §1, with “Then the assay medium is removed and 1 ml of 0.1 M formic acid is added to the cell monolayer to inactivate the phospholipase C and to the radiolabelled products into the assay medium.” left out
as §2

[5] = target: FP prostaglandin receptor (Homo sapiens, UniProt P43088); test: Selectivity for FP prostaglandin receptor compared to other classes of prostaglandin receptors
Chain of FP prostaglandin receptor (P43088 whole entry): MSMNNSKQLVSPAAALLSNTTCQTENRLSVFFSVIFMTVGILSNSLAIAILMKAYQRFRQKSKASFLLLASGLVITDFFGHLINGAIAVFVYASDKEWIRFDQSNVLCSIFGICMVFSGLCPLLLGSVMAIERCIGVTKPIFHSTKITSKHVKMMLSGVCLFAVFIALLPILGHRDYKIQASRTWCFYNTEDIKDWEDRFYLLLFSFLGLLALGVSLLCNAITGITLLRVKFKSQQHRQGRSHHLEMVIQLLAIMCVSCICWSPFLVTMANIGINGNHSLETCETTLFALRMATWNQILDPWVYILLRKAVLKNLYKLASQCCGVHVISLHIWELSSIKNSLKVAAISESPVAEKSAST

T1 sequence (P43118 whole entry): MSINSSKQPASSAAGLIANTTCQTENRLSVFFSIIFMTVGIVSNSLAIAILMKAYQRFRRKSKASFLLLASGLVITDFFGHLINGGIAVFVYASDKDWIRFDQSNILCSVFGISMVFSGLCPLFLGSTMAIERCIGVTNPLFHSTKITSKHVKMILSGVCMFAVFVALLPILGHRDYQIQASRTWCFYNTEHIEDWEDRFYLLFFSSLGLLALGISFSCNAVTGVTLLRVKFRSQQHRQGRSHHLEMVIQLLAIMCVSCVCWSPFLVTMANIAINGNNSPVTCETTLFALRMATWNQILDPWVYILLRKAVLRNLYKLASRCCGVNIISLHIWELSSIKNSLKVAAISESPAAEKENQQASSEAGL

Compound: CCCCC[C@H](O)/C=C/[C@@H]1[C@@H](C/C=C\CCCCN(C)C)[C@@H](O)C[C@H]1O [PGF2α dimethyl amine]
- Kb (potency as antagonist of the FP receptor) (FP receptor [1]; A7r5 cells): Inactive

Compound: O=C(CCc1ccc(O)cc1)c1c(O)cc(O)cc1O [Phloretin]
- Kb (FP receptor [1]; A7r5 cells): 5200 nM

Compound: O=C(O)CCC/C=C\C[C@@H]1[C@@H](/C=C/[C@@H](O)COc2cccc(C(F)(F)F)c2)[C@H](O)C[C@@H]1O (racemic) [fluprostenol]
- Agonist classification (maximum effect relative to fluprostenol) (FP receptor [2]): full agonist

Compound: CCCCC(F)[C@H](O)/C=C/[C@H]1CC[C@H](O)[C@@H]1C/C=C\CCCC(=O)O (some centres unmarked) [Compound II]
- Kb (FP receptor [1]; A7r5 cells): 132 nM
- Type of antagonism (shift of fluprostenol dose-response curves) (FP receptor [1]; A7r5 cells, maximal effects of fluprostenol unaltered, potency reduced): competitive antagonist
- Fold higher potency as FP receptor antagonist than phloretin (FP receptor [1]; from Table 1 Kb values): greater than 39 fold
- Kb (FP receptor [3]): 132 ± 22 nM
- Ki (FP receptor [4]): 324 ± 49 nM
- Agonist classification (maximum effect relative to fluprostenol) (FP receptor [2]): partial agonist
- Selectivity for the FP prostaglandin receptor compared to other classes of prostaglandin receptors [5]: relatively good selectivity

Compound: CCCCC[C@H](O)/C=C/[C@@H]1[C@@H](C/C=C\CCCC(=O)N(C)C)[C@@H](O)C[C@H]1O [PGF2α dimethyl amide]
- Kb (potency as antagonist of the FP receptor) (FP receptor [1]; A7r5 cells): Inactive

More lines, now with the values ahead:

- Kb (potency as antagonist of the FP receptor) (FP receptor [1]; A7r5 cells): Inactive
- Kb (potency as antagonist of the FP receptor) (FP receptor [1]; A7r5 cells, listed as tolbutamide): inactive
Compound: CCCCNC(=O)NS(=O)(=O)c1ccc(C)cc1 [Tolbutamide]

- Kb (FP receptor [1]; A7r5 cells): 160000 nM
Compound: COc1ccc(Cl)cc1C(=O)NCCc1ccc(S(=O)(=O)NC(=O)NC2CCCCC2)cc1 [Glibenclamide]
